Experimental data taken from patent publication US12060349B2, “Glucosylceramide synthase inhibitors” (Genzyme Corporation, priority 2012, dated 2024).
Read-outs that look alike come from different tables or passages of the source.

Legend:
[1] = test system: GM3 expression on the cell surface, C32 human melanoma cells; assay: cell based phenotypic assay, cell surface GM3 by antibody mediated immunofluorescence, C32 (GM3 C32 IC50); conditions: 50% inhibition of GM3 expression on the cell surface
Description: (§1) The cell based assay was performed in two different cell types, B16 and C32. Cell viability was also assessed in the second, cell-based assay.
(§2) The “Compound Number” in the table corresponds to the compound disclosed in the Example of the same number. […] The results of the cell based assays (performed in two different cell systems, i.e. B16 mouse melanoma or C32 human melanoma cells) are expressed as “GM3 B16 IC50” or “GM3 C32 IC50” for the B16 assay and the C32 assay, respectively. […] The results of the viability assays are expressed as “Viability, B16 IC50” or “Viability, C32 IC50”, respectively. These values represent the concentration of the compound causing 50% cell death. Values greater than 10 represent a lack of cell death.

C32 human melanoma cells = assay: cell viability in the C32 cell-based assay (Viability, C32 IC50)
Description: as §1, §2

B16 mouse melanoma cells = assay: cell viability in the B16 cell-based assay (Viability, B16 IC50); conditions: concentration causing 50% cell death, values greater than 10 represent a lack of cell death, read-out: Viability, B16 IC50
Description: as §1, §2

[2] = test system: GM3 expression on the cell surface, B16 mouse melanoma cells; assay: cell based phenotypic assay, cell surface GM3 by antibody mediated immunofluorescence, B16 (GM3 B16 IC50); conditions: 50% inhibition of GM3 expression on the cell surface
Description: as §1, §2

[3] = target: T1, glucosylceramide synthase (Homo sapiens, UniProt Q16739); assay: microsomal assay measuring conversion of ceramide to glucosylceramide by HPLC (GCS IC50); assay type: biochemical; conditions: concentration causing 50% inhibition of glucosylceramide synthase activity
T1 construct: Microsomes were isolated from A375 human melanoma cells; endogenous in cells; host or cells: A375 human melanoma cells (microsomal fraction, 100,000 g pellet)
T1 sequence (Q16739 1-394): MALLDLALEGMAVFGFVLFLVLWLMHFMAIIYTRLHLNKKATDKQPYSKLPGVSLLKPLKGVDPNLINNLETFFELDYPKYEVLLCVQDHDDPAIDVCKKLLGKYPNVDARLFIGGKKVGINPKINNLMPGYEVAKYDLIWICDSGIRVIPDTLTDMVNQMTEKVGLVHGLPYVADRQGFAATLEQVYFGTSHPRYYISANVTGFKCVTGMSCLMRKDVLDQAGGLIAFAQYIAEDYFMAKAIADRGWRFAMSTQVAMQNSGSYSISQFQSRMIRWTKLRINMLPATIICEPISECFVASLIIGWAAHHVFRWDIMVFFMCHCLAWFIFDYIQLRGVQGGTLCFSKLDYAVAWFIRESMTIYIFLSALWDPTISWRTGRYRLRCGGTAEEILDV
Description: Inhibition of glucosylceramide synthase activity for certain compounds of the invention were measured with 1) a microsomal assay that directly measures the conversion of ceramide to glucosylceramide by HPLC and 2) second, cell based, phenotypic assay that monitors cell surface expression of the downstream lipid GM3 by antibody mediated immunofluorescence. The cell based assay was performed in two different cell types, B16 and C32. Cell viability was also assessed in the second, cell-based assay.
The “Compound Number” in the table corresponds to the compound disclosed in the Example of the same number. The results of the microsomal assay are expressed as “GCS IC50”, which represents the concentration of the compound causing 50% inhibition of glucosylceramide synthase activity. The results of the cell based assays (performed in two different cell systems, i.e. B16 mouse melanoma or C32 human melanoma cells) are expressed as “GM3 B16 IC50” or “GM3 C32 IC50” for the B16 assay and the C32 assay, respectively. These values represent the concentration of the compound causing 50% inhibition of GM3 expression on the cell surface. The results of the viability assays are expressed as “Viability, B16 IC50” or “Viability, C32 IC50”, respectively. These values represent the concentration of the compound causing 50% cell death. Values greater than 10 represent a lack of cell death.

[4] = C32 human melanoma cells, read-out: GM3 C32 IC50
[5] = C32 cells; concentration causing 50% cell death; values greater than 10 represent a lack of cell death; read-out: Viability, C32 IC50
[6] = B16 mouse melanoma cells, read-out: GM3 B16 IC50
[7] = Homo sapiens, C32, C32 cells; concentration causing 50% cell death; values greater than 10 represent a lack of cell death; read-out: Viability, C32 IC50

Row | Compound | IC50 [1, 4] [nM] | IC50 (C32 human melanoma cells; [5]) [nM] | IC50 (B16 mouse melanoma cells; B16 cells) [nM] | IC50 [2, 6] [nM] | IC50 [3] [nM] | IC50 ([1]; Homo sapiens, C32 human melanoma cells, read-out: GM3 C32 IC50) [nM] | IC50 (C32 human melanoma cells; [7]) [nM] | IC50 (B16 mouse melanoma cells; Mus musculus, B16, B16 cells) [nM] | IC50 ([2]; Mus musculus, B16 mouse melanoma cells, read-out: GM3 B16 IC50) [nM] | IC50 ([1]; Homo sapiens, read-out: GM3 C32 IC50, C32 human melanoma cells) [nM] | IC50 (C32 human melanoma cells; read-out: Viability, C32 IC50; C32 cells; concentration causing 50% cell death; values greater than 10 represent a lack of cell death) [nM] | IC50 ([2]; Mus musculus, read-out: GM3 B16 IC50, B16 mouse melanoma cells) [nM]
1 | 1-(4-(4-(2-Methoxyethoxy)phenyl)-2-methylbut-3-yn-2-yl)-3-(3-propylquinuclidin-3-yl)urea [Example 330] | 6.41 | 3160 | ≥ 10000 | 203 | 104 |  |  |  |  |  |  | 
2 | 1-(4-(4-Fluorophenoxy)pyrimidin-2-yl)-N-(3-methylquinuclidin-3-yl)piperidine-4-carboxamide [Example 121] | 0.093 | 100 | 7650 | 26.3 | 1.33 |  |  |  |  |  |  | 
3 | 1-(5-Fluoro-4-(4-(2-methoxyethoxy)phenyl)pyrimidin-2-yl)-N-(3-methylquinuclidin-3-yl)piperidine-4-carboxamide [Example 57] | 0.169 | 1000 | ≥ 10000 | 69.3 | 2.41 |  |  |  |  |  |  | 
4 | 1-Azabicyclo[3.2.2]nonan-3-yl 4-(4′-fluoro-[1,1′-biphenyl]-3-yl)piperazine-1-carboxylate [Example 25] | 9380 | 5410 | 5390 | 4860 | 3480 |  |  |  |  |  |  | 
5 | 2-(3-(3-(Methylcarbamoyl)phenoxy)phenyl)propan-2-ylcarbamate [Example 295] | 147 | ≥ 10000 | ≥ 10000 | 1750 | 1020 |  |  |  |  |  |  | 
6 | 3-Ethyl-N-(4-methyl-1-azabicyclo[3.2.2]nonan-4-yl)-4-(4-phenylpyrimidin-2-yl)piperazine-1-carboxamide [Example 143] | 0.304 | 3160 | 3110 | 52.3 | 1.79 |  |  |  |  |  |  | 
7 | 4-(4-(4-Fluorophenyl)pyrimidin-2-yl)-3-methyl-N-(4-methyl-1-azabicyclo[3.2.2]nonan-4-yl)piperazine-1-carboxamide [Example 146] | 0.559 | 1000 | 6370 | 110 | 16.6 |  |  |  |  |  |  | 
8 | 4-(4′-Fluoro-[1,1′-biphenyl]-3-yl)-N-(4-methyl-1-azabicyclo[3.2.2]nonan-4-yl)piperazine-1-carboxamide [Example 22] | 41.1 | 1000 | 7060 | 629 | 613 |  |  |  |  |  |  | 
9 | 4-([1,1′-Biphenyl]-3-yl)-3-methyl-N-(4-methyl-1-azabicyclo[3.2.2]nonan-4-yl)piperazine-1-carboxamide [Example 32] | 46.5 | 3160 | 7290 | 462 | 544 |  |  |  |  |  |  | 
10 | C[C@@H]1CN(C(=O)NC2(C)CCN3CCC2CC3)C[C@H](C)N1c1nccc(-c2ccccc2)n1 (relative stereo) [Example 147, cis-3,5-Dimethyl-N-(4-methyl-1-azabicyclo[3.2.2]nonan-4-yl)-4-(4-phenylpyrimidin-2-yl)piperazine-1-carboxamide] |  |  |  |  | 5.45 | 1 | 1000 | 3510 | 96 |  |  | 
11 | CC1(NC(=O)C2CCN(c3nccc(-c4ccc(F)cc4)n3)CC2)CCN2CCC1CC2 (single isomer, unassigned) [Example 42, 1-(4-(4-Fluorophenyl)pyrimidin-2-yl)-N-(4-methyl-1-azabicyclo[3.2.2]nonan-4-yl)piperidine-4-carboxamide] | 9.82 |  |  | 918 | 94.1 |  | 4640 | 7660 |  |  |  | 
12 | CCOc1ccc(-c2cccc(C(C)(C)NC(=O)OC3CN4CCC3CC4)c2)nn1 (centres unmarked) [Example 318, Quinuclidin-3-yl (2-(3-(6-ethoxypyridazin-3-yl)phenyl)propan-2-yl)carbamate] |  |  |  |  | 1460 |  |  |  |  | 69.9 | 1000 | 635
